Assay results reported in US20240050033A1, “PERFUSION DEVICE FOR EVALUATING BLOOD PARAMETERS” (SEDICIDODICI S.R.L., priority 2020, published 2024).

Assays:
platelets = experiment: ex-vivo dynamic evaluation of platelet aggregate formation in a whole-blood sample flowing through a perfusion chamber (fluorescence imaging); type: cell-based, human; details: mean value, blood of subjects under the therapy; 8-bit acquisition system
Source text: (§1) The present invention firstly relates to a method for the dynamic “ex-vivo” evaluation of the coagulation process in a patient's blood sample, characterized in that such a method comprises the simultaneous determination on the same blood sample of both the time, quantity and speed of platelet aggregate formation and of fibrin formation time, quantity and speed.
According to some embodiments, the method of the invention comprises the following steps: • a) providing a whole-blood sample taken from a subject and added with an anti-coagulant substance; • b) treating the blood sample of step a) with a solution consisting of fluorescent probes for marking platelets and fibrin capable of binding more or less specifically to platelets and fibrin and emitting fluorescent light on two different emission frequencies and of a recalcification solution of the blood sample. […]

fibrin = experiment: ex-vivo dynamic evaluation of fibrin formation in a whole-blood sample flowing through a perfusion chamber (fluorescence imaging); type: cell-based, human; details: mean value, blood of subjects under the therapy; 8-bit acquisition system
Source text: as §1
According to some embodiments, the method of the invention comprises the following steps: • a) providing a whole-blood sample taken from a subject and added with an anti-coagulant substance; • b) treating the blood sample of step a) with a solution consisting of fluorescent probes for marking platelets and fibrin capable of binding more or less specifically to platelets and fibrin and emitting fluorescent light on two different emission frequencies and of a recalcification solution of the blood sample. The two aforesaid solutions can also be combined in a single solution or single reagent; • c) introducing said recalcified blood sample into an analytical device having at least one perfusion chamber, in which at least one wall consists of a transparent material comprising a cytoadhesive substance, the blood sample being made to flow into the perfusion chamber in known and measurable flow conditions; • d) during the blood flow in the perfusion chamber, alternately acquiring at least two series of fluorescence images, so that at least one series of fluorescence images is acquired at an emission wavelength characteristic of the fluorescent probe for platelets and at least one other series of fluorescence images is acquired at another emission wavelength characteristic of the fluorescent probe for fibrin; • e) binarizing the pixels of the acquired images for the platelets and for the fibrin, so as to generate a first curve of area covered by illuminated pixels vs. time (t) for the formation of a platelet aggregate and a second curve of area covered by illuminated pixels vs. time for the fibrin formation; • f) generating a first curve of average fluorescence intensity vs. time for the formation of the platelet aggregate and a second curve of average fluorescence intensity vs. time for the fibrin formation; • in which the method comprises at least one of the following steps: • g) generating a first integrated density curve defined as the product of area and fluorescence intensity vs. time for the formation of the platelet aggregate and a second integrated density curve defined as the product of area and fluorescence intensity vs. time for the fibrin formation; • h) generating a curve of particle number vs. time, in which the number of particles is given by the number of platelet aggregates consisting of more than 2 illuminated pixels; • i) generating a curve of particle size vs. time, in which the particle size is given by the average size of the platelet aggregates consisting of more than 2 illuminated pixels; • j) generating values of maximum slope, defined as the relative maximum points of the first derivative function calculated for the curves of the parameter obtained in said at least one step e), f), g), h) and i); • k) generating values of maximum acceleration, defined as the relative maximum points of the second derivative function calculated for the curves of the parameter obtained in said at least one step e), f), g), h) and i); • l) generating values of F/P ratio, defined as the ratio of the AUCs of fibrin to the AUCs of the platelets of the parameter obtained in said at least one step e), f) and g); • the method further comprising the steps of: • m) generating a lag time value representing the fibrin formation time defined as the time corresponding to the first occurrence of five consecutive images in which the value of the measured area related to fibrin is >1% of the maximum peak value of the curve; • n) generating AUC (Area Under the Curve) values given by the area under the curve of each parameter obtained in steps e), f), g), h) and i). […]

CC(=O)Oc1ccccc1C(=O)O [ASA, acetylsalicylic acid]
Platelets AUC Area (area under the curve of the area curve) (platelets): 3.4 ×10^7 | Platelets AUC ID (area under the curve of the integrated density curve) (platelets): 3.0 ×10^9 | Platelets AUC MGV (area under the curve of the fluorescence intensity curve) (platelets): 2.0 ×10^4 | F/P Area (AUC Area ratio of fibrin to platelets) (fibrin): 1.0 | F/P ID (AUC ID ratio of fibrin to platelets) (fibrin): 2.2 | F/P MGV (AUC MGV ratio of fibrin to platelets) (fibrin): 1.2 | Fibrin AUC Area (area under the curve of the area curve) (fibrin): 3.0 ×10^7 | Fibrin AUC ID (area under the curve of the integrated density curve) (fibrin): 4.3 ×10^9 | Fibrin AUC MGV (area under the curve of the fluorescence intensity curve) (fibrin): 2.0 ×10^4 | Lag Time (fibrin formation time) (fibrin): 267.5 s
